Assays:
Type in all cases: cell-based, human
[1] = system: LAMP-1 (CD107a); experiment: Unstimulated whole blood flow cytometry, LAMP-1; conditions: unstimulated, Mean ± SD
Description: (§1) The methodology employed was conventional aggregation induced by 5 μM ADP, 1 μg/ml collagen, 10 μM TRAP, whole blood aggregation with 1 μg/ml collagen, Ultegra, and PFA-100 Analyzers, expression of 14 intact, and TRAP-stimulated major receptors by whole blood flow cytometry were utilized to assess platelet activity after preincubation with escalating concentrations of E5555 (20 ng/ml, 50 ng/ml, and 100 ng/ml). The experiments were performed in healthy volunteers, CAD patients treated with ASA, and CAD patients treated with ASA and clopidogrel combination (n=10, for each group).
(§2) An Informed Consent was obtained from all volunteers. Drug users were excluded from data analysis. The study was approved by Quorum Institutional Review Board. All subjects underwent blood sampling after at least 30 minutes of rest and two or more hours of fasting. Blood (28 ml) was drawn between 8 and 10 a.m. in order to avoid any diurnal influence and sampled from an antecubital vein using a 21-gauge butterfly needle containing 3.2% sodium citrate (1:9 volume) after having discarded the first 1.5 ml of free running blood. Four Vacutainer tubes (7.0 ml) were collected for a total of 28 ml of whole blood-citrate mixture from each study participant. Chronologically, blood samples were delivered to the core laboratory facility within 45 minutes after drawing. Then all tubes of blood-citrate mixture were pooled. One portion of pooled blood (5 ml) was kept as an internal control and pretreated with the vehicle. The remaining blood (23 ml) was used for the in vitro exposure to E5555 at concentrations of 20 ng/ml, 50 ng/ml, and 100 ng/ml. […] The platelet aggregation studies, Rapid Analyzers measures, and flow cytometry preparations were initiated within no more than 110 minutes following the blood draw, incubation with the drug, and preparation of the samples.
(§3) Formation of platelet-leukocyte aggregates was assessed by dual labeling with pan-platelet marker (CD151), and then with CD14, the macrophage receptor for endotoxin lipopolysaccharides (PharMingen, and Coulter, San Diego, Calif., USA). The tubes were then covered with aluminum foil and incubated at 37° C. for 40 minutes with gentle rotation. After incubation, samples were immediately analyzed on a Becton Dickinson FACScan flow cytometer. The instrument was set up to measure forward light scatter, and FITC fluorescence. All parameters were collected using four-decade logarithmic amplification. The data was retrieved in list mode files and then analyzed. P selectin was expressed as percent positive cells. Other antigens were expressed as log mean fluorescence intensity.

[2] = system: Thrombospondin-Receptor (CD36); experiment: Unstimulated whole blood flow cytometry, thrombospondin receptor; conditions: for Thrombospondin-Receptor (CD36), Mean Fluorescence Intensity: unstimulated, Mean ± SD
Description: as §1, §2, §3

[3] = system: PAC-1 (GPIIb/IIIa); experiment: TRAP-stimulated whole blood flow cytometry, PAC-1; conditions: Mean ± SD
Description: as §1, §2, §3
(§4) For flow cytometry (TRAP-stimulated) all of the above flow cytometry experiments were identically repeated utilizing prestimulation with 10 μmol/L TRAP for 5 minutes at 37° C. To determine statistics, a Paired Sign Test was used to define significance of differences between vehicle and E5555-treated groups. The Mann-Whitney U test was used to analyze nonparametric data. Normally distributed data were expressed as mean±standard error (m±SE), and skewed data as median (range). All P-values were two sided. All analysis was performed using the SPSS v9.0 program (SPSS Inc., Chicago, Ill.).

[4] = system: PMA (CD14 + CD151); experiment: TRAP-stimulated whole blood flow cytometry, platelet-monocyte aggregates; conditions: Mean ± SD
Description: as §1, §2, §3, §4

[5] = E5555 50 ng/ml, Patients (ASA + C)
[6] = E5555 100 ng/ml, Patients (ASA + C)
[7] = E5555 100 ng/ml, Patients (ASA)
[8] = E5555 20 ng/ml, Patients (ASA + C)

## Br.CCOc1cc2c(c(F)c1OCC)C(=N)N(CC(=O)c1cc(N3CCOCC3)c(OC)c(C(C)(C)C)c1)C2 [E5555, 1-(3-tert-butyl-4-methoxy-5-morpholinophenyl)-2-(5,6-diethoxy-7-fluoro-1-imino-1,3-dihydro-2H-isoindol-2-yl)ethanone hydrobromide]
[1]; E5555 20 ng/ml, Patients (ASA)
  LAMP-1 (CD107a), Mean Fluorescence Intensity: 4.3 ± 1.2 MFI
[1]; E5555 20 ng/ml, Volunteers
  LAMP-1 (CD107a), Mean Fluorescence Intensity: 4.7 ± 0.5 MFI
[1]; [5]
  LAMP-1 (CD107a), Mean Fluorescence Intensity: 4.7 ± 1.3 MFI
[1]; E5555 50 ng/ml, Patients (ASA)
  LAMP-1 (CD107a), Mean Fluorescence Intensity: 5.0 ± 1.7 MFI
[1]; E5555 50 ng/ml, Volunteers
  LAMP-1 (CD107a), Mean Fluorescence Intensity: 4.6 ± 0.6 MFI
[1]; [6]
  LAMP-1 (CD107a), Mean Fluorescence Intensity: 4.8 ± 1.4 MFI
[1]; [7]
  LAMP-1 (CD107a), Mean Fluorescence Intensity: 4.3 ± 1.5 MFI
[1]; E5555 100 ng/ml, Volunteers
  LAMP-1 (CD107a), Mean Fluorescence Intensity: 4.4 ± 1.0 MFI
[2]; overall summary, stimulation not stated
  thrombospondin receptor expression, effect in words: significant reduction
[2]; [8]
  Thrombospondin-Receptor (CD36), Mean Fluorescence Intensity: 6.8 ± 1.9 MFI
[2]; E5555 20 ng/ml, Patients (ASA)
  Thrombospondin-Receptor (CD36), Mean Fluorescence Intensity: 7.2 ± 0.5 MFI
[2]; E5555 20 ng/ml, Volunteers
  Thrombospondin-Receptor (CD36), Mean Fluorescence Intensity: 8.4 ± 1.1 MFI
[2]; [5]
  Thrombospondin-Receptor (CD36), Mean Fluorescence Intensity: 7.0 ± 1.0 MFI
[2]; E5555 50 ng/ml, Patients (ASA)
  Thrombospondin-Receptor (CD36), Mean Fluorescence Intensity: 7.0 ± 0.7 MFI
[2]; E5555 50 ng/ml, Volunteers
  Thrombospondin-Receptor (CD36), Mean Fluorescence Intensity: 8.2 ± 0.8 MFI
[2]; [6]
  Thrombospondin-Receptor (CD36), Mean Fluorescence Intensity: 7.1 ± 1.2 MFI
[2]; [7]
  Thrombospondin-Receptor (CD36), Mean Fluorescence Intensity: 7.4 ± 0.9 MFI
[2]; E5555 100 ng/ml, Volunteers
  Thrombospondin-Receptor (CD36), Mean Fluorescence Intensity: 8.4 ± 1.0 MFI
[3]; [8]
  PAC-1 (GPIIb/IIIa), Mean Fluorescence Intensity: 41 ± 5 MFI
[3]; E5555 20 ng/ml, Patients (ASA)
  PAC-1 (GPIIb/IIIa), Mean Fluorescence Intensity: 52 ± 6 MFI
[3]; E5555 20 ng/ml, Volunteers
  PAC-1 (GPIIb/IIIa), Mean Fluorescence Intensity: 68 ± 8 MFI
[3]; [5]
  PAC-1 (GPIIb/IIIa), Mean Fluorescence Intensity: 9 ± 1 MFI
[3]; E5555 50 ng/ml, Patients (ASA)
  PAC-1 (GPIIb/IIIa), Mean Fluorescence Intensity: 9 ± 3 MFI
[3]; E5555 50 ng/ml, Volunteers
  PAC-1 (GPIIb/IIIa), Mean Fluorescence Intensity: 17 ± 9 MFI
[3]; [6]
  PAC-1 (GPIIb/IIIa), Mean Fluorescence Intensity: 5 ± 2 MFI
[3]; [7]
  PAC-1 (GPIIb/IIIa), Mean Fluorescence Intensity: 4 ± 1 MFI
[3]; E5555 100 ng/ml, Volunteers
  PAC-1 (GPIIb/IIIa), Mean Fluorescence Intensity: 7 ± 3 MFI
[4]; [8]
  PMA (CD14 + CD151), Mean Fluorescence Intensity: 100 ± 21 MFI
[4]; E5555 20 ng/ml, Patients (ASA)
  PMA (CD14 + CD151), Mean Fluorescence Intensity: 109 ± 23 MFI
[4]; E5555 20 ng/ml, Volunteers
  PMA (CD14 + CD151), Mean Fluorescence Intensity: 133 ± 19 MFI
[4]; [5]
  PMA (CD14 + CD151), Mean Fluorescence Intensity: 77 ± 23 MFI
[4]; E5555 50 ng/ml, Patients (ASA)
  PMA (CD14 + CD151), Mean Fluorescence Intensity: 82 ± 10 MFI
[4]; E5555 50 ng/ml, Volunteers
  PMA (CD14 + CD151), Mean Fluorescence Intensity: 118 ± 14 MFI
[4]; [6]
  PMA (CD14 + CD151), Mean Fluorescence Intensity: 108 ± 19 MFI
[4]; [7]
  PMA (CD14 + CD151), Mean Fluorescence Intensity: 116 ± 23 MFI
[4]; E5555 100 ng/ml, Volunteers
  PMA (CD14 + CD151), Mean Fluorescence Intensity: 125 ± 20 MFI
